Tests used:
[1] = Inhibition of bovine brain tubulin assembly preincubated for 15 mins followed by GTP addition measured for 20 mins by spectrophotometric method; parameters: species or system Bos taurus
A-431 = test: Cytotoxicity against human A431 cells; type: functional, cell-based
Chorioallantoic membrane = test: Antiangiogenic activity in Leghorn chicken egg chorioallantoic membrane assessed as inhibition of human VEGF-165/bFGF-induced blood vessels formation measured after 40 hrs by microscopic method; type: functional, tissue-based; conditions: Gallus gallus

SMILES | IC50 [1] | IC50 (A-431) | IC50 (Chorioallantoic membrane)
COc1ccc2c(c1)CCCN2c1nc(N)nc2c(Cc3ccccc3)c[nH]c12 | 13 µM |  | 
COc1ccc2c(c1)CCN2c1nc(C)nc2c(Cc3ccccc3)c[nH]c12 | > 20 µM |  | 
COc1ccc(Nc2nc(C)nc3c(Cc4ccccc4)cn(C)c23)cc1 | > 20 µM | 2.3 µM | 8.7 µM
COc1ccc(N(C)c2nc(N)nc3c(Cc4ccccc4)c[nH]c23)cc1 | > 20 µM | 0.7 µM | 2.3 µM

— ChEMBL document CHEMBL3997769, “Discovery and preclinical evaluation of 7-benzyl-N-(substituted)-pyrrolo[3,2-d]pyrimidin-4-amines as single agents with microtubule targeting effects along with triple-acting angiokinase inhibition as antitumor agents” (Bioorg Med Chem, 2017)
